Results taken from patent publication US11377442B2, “Small molecule agonists and antagonists of NR2F6 activity” (ZANDER THERAPEUTICS, INC., priority 2016, dated 2022).
Where two headings read alike, the source gives them in different places.

Columns and labels:
Assay type in all cases: cell-based
NR2F6 = target: T1, NR2F6 (Homo sapiens, UniProt P10588); experiment: NR2F6 agonist screening, Firefly signal cmpd/DMSO; conditions: first set screening, 10 μM
T1 construct: expressed in transfected cells; also transient transfection
T1 sequence (P10588 1-404): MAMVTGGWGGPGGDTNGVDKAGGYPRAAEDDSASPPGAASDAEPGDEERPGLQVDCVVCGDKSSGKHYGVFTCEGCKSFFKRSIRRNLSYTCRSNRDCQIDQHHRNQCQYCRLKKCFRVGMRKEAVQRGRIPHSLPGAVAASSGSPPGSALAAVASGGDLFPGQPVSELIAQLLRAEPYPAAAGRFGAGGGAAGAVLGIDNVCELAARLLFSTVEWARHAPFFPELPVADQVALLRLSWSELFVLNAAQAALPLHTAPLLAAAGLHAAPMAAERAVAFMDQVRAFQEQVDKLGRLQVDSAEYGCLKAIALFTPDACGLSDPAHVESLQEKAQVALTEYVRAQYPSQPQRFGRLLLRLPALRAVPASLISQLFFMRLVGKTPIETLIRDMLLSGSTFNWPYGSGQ

Renilla = Renilla signal in NR2F6 agonist screening, cmpd/DMSO; conditions: first set screening, 10 μM; for fold induction at 10 µM: Renilla
ERα = target: T2, ERα (Homo sapiens, UniProt P03372); experiment: Counterscreening, Firefly signal with ERα transient transfection (Firefly_ERa); conditions: ERα transient transfection, 10 μM
T2 construct: expressed in transfected cells
T2 sequence (P03372 1-595): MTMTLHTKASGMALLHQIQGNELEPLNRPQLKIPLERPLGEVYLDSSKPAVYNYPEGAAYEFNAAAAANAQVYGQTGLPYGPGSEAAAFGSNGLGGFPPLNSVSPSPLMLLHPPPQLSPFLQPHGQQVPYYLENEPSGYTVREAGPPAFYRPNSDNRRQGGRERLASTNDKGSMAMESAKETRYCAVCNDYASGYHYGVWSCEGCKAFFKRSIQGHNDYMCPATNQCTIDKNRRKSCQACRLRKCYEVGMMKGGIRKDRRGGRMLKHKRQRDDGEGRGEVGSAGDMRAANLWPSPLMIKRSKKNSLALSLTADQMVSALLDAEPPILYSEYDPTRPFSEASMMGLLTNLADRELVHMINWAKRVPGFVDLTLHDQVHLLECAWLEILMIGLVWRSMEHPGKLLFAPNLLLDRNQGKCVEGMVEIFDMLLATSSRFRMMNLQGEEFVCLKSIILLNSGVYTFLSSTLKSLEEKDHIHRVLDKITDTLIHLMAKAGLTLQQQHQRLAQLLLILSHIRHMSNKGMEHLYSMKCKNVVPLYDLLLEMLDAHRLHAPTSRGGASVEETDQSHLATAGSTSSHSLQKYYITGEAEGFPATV
Method: The methodology for screening candidate compounds as NR2F6 agonists was as follows: For primary screening, hit criteria was ACT %>DMSO control+5*SD (DSO control) at 10 μM, or any compound with S/B>2. For rescreening, hit criteria was ACT %>DMSO control+3*SD (DSO control) in each replicate at 10 μM. For counterscreening, hit criteria was mean ACT<DMSO control+3*SD (DMSO control) with ERα transient transfection in duplicate at 10 μM.

Renilla_ERa = experiment: Renilla signal in ERα counterscreen (Renilla_ERa); conditions: ERα transient transfection, 10 μM

## O=C(Nc1ccc(Cl)cn1)c1ccc(I)cc1 [Compound 18]
NR2F6
  Firefly, cmpd/DMSO repeat 1: 3.8
  Firefly, cmpd/DMSO repeat 2: 3.8
Renilla; repeat 1, read-out: Renilla, cmpd/DMSO repeat 1
  fold induction at 10 µM: 3.3
Renilla; repeat 2, read-out: Renilla, cmpd/DMSO repeat 2
  fold induction at 10 µM: 4.2
ERα
  Firefly_ERa, cmpd/DMSO repeat 1: 2.5
  Firefly_ERa, cmpd/DMSO repeat 2: 1.9
Renilla_ERa; repeat 1, read-out: Renilla_ERa, cmpd/DMSO repeat 1
  fold induction at 10 µM: 0.8
Renilla_ERa; repeat 2, read-out: Renilla_ERa, cmpd/DMSO repeat 2
  fold induction at 10 µM: 0.9

## Cc1ccnc(NC(=O)c2cc3sc4ccccc4c3s2)c1 [Compound 20]
NR2F6
  Firefly, cmpd/DMSO repeat 1: 2.2
  Firefly, cmpd/DMSO repeat 2: 2.1
Renilla; repeat 1
  Renilla, cmpd/DMSO repeat 1: 4.4
Renilla; repeat 2
  Renilla, cmpd/DMSO repeat 2: 4.8
ERα
  Firefly_ERa, cmpd/DMSO repeat 1: 1.5
  Firefly_ERa, cmpd/DMSO repeat 2: 1.7
Renilla_ERa; repeat 1
  Renilla_ERa, cmpd/DMSO repeat 1: 1.1
Renilla_ERa; repeat 2
  Renilla_ERa, cmpd/DMSO repeat 2: 0.9

## CCn1c2c(c(=O)[nH]c1=O)C(c1ccc(C(C)C)cc1)C1=C(N2)c2ccccc2C1=O (stereo not drawn) [Compound 21]
NR2F6
  Firefly, cmpd/DMSO repeat 1: 2.4
  Firefly, cmpd/DMSO repeat 2: 2.2
Renilla; repeat 1
  Renilla, cmpd/DMSO repeat 1: 3.8
Renilla; repeat 2
  Renilla, cmpd/DMSO repeat 2: 3.0
ERα
  Firefly_ERa, cmpd/DMSO repeat 1: 1.1
  Firefly_ERa, cmpd/DMSO repeat 2: 1.0
Renilla_ERa; repeat 1
  Renilla_ERa, cmpd/DMSO repeat 1: 1.1
Renilla_ERa; repeat 2
  Renilla_ERa, cmpd/DMSO repeat 2: 0.9
